This passage reports Activity and IC50 results from ChEMBL document CHEMBL2074436, “Hepatobiliary elimination of the peroxisome proliferator nafenopin by conjugation and subsequent ATP-dependent transport across the canalicular membrane” (Biochem Pharmacol, 1994).

The target in data set [1] is T1, ATP-binding cassette sub-family C member 2 (Rattus norvegicus, UniProt Q63120). The experiment in a line: TP_TRANSPORTER: uptake in bile canalicular membrane vesicles from Wistar/TR- rat. The data set is classed as functional, cell membranes, Bile canalicular membrane vesicle.
The target of data set [2] is T1, ATP-binding cassette sub-family C member 2. The experiment in a line: TP_TRANSPORTER: inhibition of Naf-GlcA uptake (Naf-GlcA: 0.1 uM) in bile canalicular membrane vesicles of Wistar rat. It is filed as functional, cell membranes, Bile canalicular membrane vesicle.

T1 sequence (Q63120 whole entry): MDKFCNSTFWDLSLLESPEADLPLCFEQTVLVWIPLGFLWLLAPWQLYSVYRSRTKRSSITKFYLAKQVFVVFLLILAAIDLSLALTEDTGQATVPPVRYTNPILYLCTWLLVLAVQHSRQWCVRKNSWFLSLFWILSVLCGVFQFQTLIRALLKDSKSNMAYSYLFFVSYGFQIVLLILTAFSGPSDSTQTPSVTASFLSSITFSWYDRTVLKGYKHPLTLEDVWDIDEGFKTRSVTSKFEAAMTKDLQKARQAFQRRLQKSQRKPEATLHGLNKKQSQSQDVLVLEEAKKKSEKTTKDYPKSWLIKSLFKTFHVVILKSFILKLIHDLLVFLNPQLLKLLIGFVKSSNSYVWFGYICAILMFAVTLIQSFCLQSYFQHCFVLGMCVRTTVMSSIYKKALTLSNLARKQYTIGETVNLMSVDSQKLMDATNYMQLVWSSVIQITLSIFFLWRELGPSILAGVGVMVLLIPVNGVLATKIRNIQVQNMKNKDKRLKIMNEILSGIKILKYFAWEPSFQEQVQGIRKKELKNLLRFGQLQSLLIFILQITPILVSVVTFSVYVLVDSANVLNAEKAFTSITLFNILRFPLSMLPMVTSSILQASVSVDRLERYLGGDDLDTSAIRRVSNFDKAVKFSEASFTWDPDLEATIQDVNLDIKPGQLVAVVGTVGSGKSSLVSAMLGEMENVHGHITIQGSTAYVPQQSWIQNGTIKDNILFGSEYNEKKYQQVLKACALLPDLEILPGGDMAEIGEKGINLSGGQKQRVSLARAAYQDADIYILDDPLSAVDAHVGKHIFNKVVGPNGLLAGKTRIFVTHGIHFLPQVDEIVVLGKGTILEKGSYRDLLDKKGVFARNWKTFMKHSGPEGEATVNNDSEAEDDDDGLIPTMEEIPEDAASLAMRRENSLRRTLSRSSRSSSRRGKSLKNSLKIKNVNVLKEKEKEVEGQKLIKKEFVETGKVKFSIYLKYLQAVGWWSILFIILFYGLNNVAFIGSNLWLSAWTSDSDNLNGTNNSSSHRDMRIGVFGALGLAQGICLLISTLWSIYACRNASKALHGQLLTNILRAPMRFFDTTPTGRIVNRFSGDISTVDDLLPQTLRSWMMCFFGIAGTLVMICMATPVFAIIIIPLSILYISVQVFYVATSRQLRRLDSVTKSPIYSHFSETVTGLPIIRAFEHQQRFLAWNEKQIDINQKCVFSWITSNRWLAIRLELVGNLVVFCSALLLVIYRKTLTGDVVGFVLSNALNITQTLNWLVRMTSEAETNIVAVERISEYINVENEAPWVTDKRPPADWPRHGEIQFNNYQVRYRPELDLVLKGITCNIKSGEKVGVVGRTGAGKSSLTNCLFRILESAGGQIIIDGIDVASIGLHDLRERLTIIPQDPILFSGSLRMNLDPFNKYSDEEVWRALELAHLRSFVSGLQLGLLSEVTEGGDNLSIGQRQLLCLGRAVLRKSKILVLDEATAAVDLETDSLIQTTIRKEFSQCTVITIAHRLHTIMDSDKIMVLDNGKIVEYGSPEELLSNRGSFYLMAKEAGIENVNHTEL

As for `CC(C)(Oc1ccc(C2CCCc3ccccc32)cc1)C(=O)O[C@@H]1O[C@H](O)[C@@H](O)[C@H](O)[C@H]1O` (stereo partly drawn) [NAFENOPIN GLUCURONIDE], the Activity result in data set [1] is “substrate [+]”.

For the compound `N[C@@H](CCC(=O)N[C@H](CSc1ccc([N+](=O)[O-])cc1[N+](=O)[O-])C(=O)NCC(=O)O)C(=O)O`, the IC50 – broadly, the concentration that inhibits the measured activity by half – in data set [2] was 12 µM.

`CCCCC/C=C\C\C=C/C=C/C=C/[C@@H](SC[C@@H](NC(=O)CC[C@H](N)C(=O)O)C(=O)NCC(=O)O)[C@@H](O)CCCC(=O)O` [LEUKOTRIEN C4] came in with an IC50 in data set [2] of 0.2 µM. Against the preceding compound, the IC50 is about 60-fold lower.
